Measured values reported in ChEMBL document CHEMBL3352413, “4-Amino-2-arylamino-6-(2,6-dichlorophenyl)-pyrido[2,3-d]pyrimidin-7-(8H)-ones as BCR kinase inhibitors for B lymphoid malignancies” (Eur J Med Chem, 2014).
Activity calls are given as the source filed them. No cut-off for these calls is given here.

Assays:
[1] = target: Tyrosine-protein kinase SYK (Homo sapiens) (UniProt P43405); assay: Inhibition of Syk (unknown origin) assessed as enzyme residual activity at 10 uM by radiometric protein kinase assay
[2] = target: Tyrosine-protein kinase BTK (Homo sapiens) (UniProt Q06187); assay: Inhibition of BTK (unknown origin) assessed as enzyme residual activity at 10 uM by radiometric protein kinase assay
Tyrosine-protein kinase BTK (Homo sapiens), sequence (Q06187 whole entry): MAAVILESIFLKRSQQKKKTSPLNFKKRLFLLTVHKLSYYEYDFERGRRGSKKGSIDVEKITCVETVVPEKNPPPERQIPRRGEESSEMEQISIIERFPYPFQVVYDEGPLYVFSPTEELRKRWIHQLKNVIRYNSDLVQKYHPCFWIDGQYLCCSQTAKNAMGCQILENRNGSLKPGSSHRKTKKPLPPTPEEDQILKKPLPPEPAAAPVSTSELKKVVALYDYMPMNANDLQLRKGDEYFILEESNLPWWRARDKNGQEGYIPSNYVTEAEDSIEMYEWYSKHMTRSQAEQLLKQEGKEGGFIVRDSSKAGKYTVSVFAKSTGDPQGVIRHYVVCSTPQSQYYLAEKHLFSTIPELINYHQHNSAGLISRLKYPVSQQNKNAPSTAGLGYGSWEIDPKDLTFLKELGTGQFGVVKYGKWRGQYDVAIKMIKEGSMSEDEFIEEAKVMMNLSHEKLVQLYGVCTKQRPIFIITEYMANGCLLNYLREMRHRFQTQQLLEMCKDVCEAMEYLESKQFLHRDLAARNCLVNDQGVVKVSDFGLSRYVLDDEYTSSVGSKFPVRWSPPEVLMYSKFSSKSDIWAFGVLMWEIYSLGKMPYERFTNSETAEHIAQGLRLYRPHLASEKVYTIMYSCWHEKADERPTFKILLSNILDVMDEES

[3] = target: Tyrosine-protein kinase Lyn (Homo sapiens) (UniProt P07948); assay: Inhibition of Lyn (unknown origin) assessed as enzyme residual activity at 10 uM by radiometric protein kinase assay
Tyrosine-protein kinase Lyn (Homo sapiens), sequence (P07948 2-512 limits assumed): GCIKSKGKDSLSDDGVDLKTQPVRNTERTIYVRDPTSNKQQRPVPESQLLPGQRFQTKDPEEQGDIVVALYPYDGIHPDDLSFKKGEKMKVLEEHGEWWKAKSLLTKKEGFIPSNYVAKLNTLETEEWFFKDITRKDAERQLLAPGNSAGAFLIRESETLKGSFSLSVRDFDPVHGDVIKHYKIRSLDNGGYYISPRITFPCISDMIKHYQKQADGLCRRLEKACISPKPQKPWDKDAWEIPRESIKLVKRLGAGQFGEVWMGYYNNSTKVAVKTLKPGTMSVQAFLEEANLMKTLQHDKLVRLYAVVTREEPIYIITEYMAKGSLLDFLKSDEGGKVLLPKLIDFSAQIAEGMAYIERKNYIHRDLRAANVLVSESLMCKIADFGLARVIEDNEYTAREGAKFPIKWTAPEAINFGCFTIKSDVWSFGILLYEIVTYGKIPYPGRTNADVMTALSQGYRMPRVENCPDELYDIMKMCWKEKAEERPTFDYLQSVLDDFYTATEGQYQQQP

[4] = target: Tyrosine-protein kinase BTK (Homo sapiens) (UniProt Q06187); assay: Inhibition of BTK phosphorylation in human Rec1 cells at 5 uM incubated for 6 hrs by Western blotting method; assay type: cell-based
[5] = target: Tyrosine-protein kinase BTK (Homo sapiens) (UniProt Q06187); assay: Inhibition of BTK phosphorylation in human Rec1 cells at 1 uM incubated for 6 hrs by Western blotting method; assay type: cell-based
[6] = target: Tyrosine-protein kinase Lyn (Homo sapiens) (UniProt P07948); assay: Inhibition of Lyn phosphorylation in human Rec1 cells at 2.5 uM incubated for 6 hrs by Western blotting method; assay type: cell-based
[7] = target: Tyrosine-protein kinase Lyn (Homo sapiens) (UniProt P07948); assay: Inhibition of Lyn phosphorylation in human Rec1 cells at 0.1 to 5 uM incubated for 6 hrs by Western blotting method; assay type: cell-based
[8] = target: Tyrosine-protein kinase SYK (Homo sapiens) (UniProt P43405); assay: Inhibition of Syk phosphorylation in human Rec1 cells at 0.1 to 5 uM incubated for 6 hrs by Western blotting method; assay type: cell-based
[9] = Growth inhibition of human Rec1 cells after 48 hrs by MTT assay; assay type: functional; conditions: Rec1, 48 h
[10] = Growth inhibition of human HBL2 cells after 48 hrs by MTT assay; assay type: functional; conditions: HBL2, 48 h
[11] = Growth inhibition of human Rec1 cells after 24 hrs by MTT assay; assay type: functional; conditions: Rec1, 24 h
[12] = Growth inhibition of human HBL2 cells after 24 hrs by MTT assay; assay type: functional; conditions: HBL2, 24 h
[13] = Solubility in water; assay type: physicochemical
[14] = Growth inhibition of human SC1 cells after 48 hrs by MTT assay; assay type: functional; conditions: SC-1, 48 h
[15] = Growth inhibition of human MEC1 cells after 24 hrs by MTT assay; assay type: functional; conditions: MEC1, 24 h
[16] = Growth inhibition of human DOHH2 cells after 48 hrs by MTT assay; assay type: functional; conditions: DOHH-2, 48 h
[17] = Growth inhibition of human JVM2 cells after 48 hrs by MTT assay; assay type: functional; conditions: JVM-2, 48 h
[18] = Growth inhibition of human Maver1 cells after 48 hrs by MTT assay; assay type: functional; conditions: Maver1, 48 h
[19] = Inhibition of cell proliferation of human Rec1 cells at 5 uM after 24 hrs by MTT assay; assay type: functional; conditions: Rec1, 24 h
[20] = Growth inhibition of human UPN1 cells after 24 hrs by MTT assay; assay type: functional; conditions: UPN1, 24 h
[21] = Growth inhibition of human SUDHL8 cells after 48 hrs by MTT assay; assay type: functional; conditions: SU-DHL-8, 48 h
[22] = Growth inhibition of human JVM13 cells after 48 hrs by MTT assay; assay type: functional; conditions: JVM13, 48 h
[23] = Growth inhibition of human Mino cells after 24 hrs by MTT assay; assay type: functional
[24] = system: WSU-NHL; assay: Growth inhibition of human WSU-NHL cells after 48 hrs by MTT assay; assay type: functional
[25] = Growth inhibition of human Mino cells after 48 hrs by MTT assay; assay type: functional
[26] = Growth inhibition of human GRANTA-519 cells after 24 hrs by MTT assay; assay type: functional; conditions: Granta-519, 24 h
[27] = Growth inhibition of human GRANTA-519 cells after 48 hrs by MTT assay; assay type: functional; conditions: Granta-519, 48 h
[28] = Growth inhibition of human Maver1 cells after 24 hrs by MTT assay; assay type: functional; conditions: Maver1, 24 h
[29] = Growth inhibition of human SUDHL8 cells after 24 hrs by MTT assay; assay type: functional; conditions: SU-DHL-8, 24 h
[30] = Growth inhibition of human MEC2 cells after 24 hrs by MTT assay; assay type: functional; conditions: MEC2, 24 h
[31] = Growth inhibition of human JeKo1 cells after 24 hrs by MTT assay; assay type: functional; conditions: JeKo-1, 24 h
[32] = Growth inhibition of human JVM13 cells after 24 hrs by MTT assay; assay type: functional; conditions: JVM13, 24 h
[33] = Growth inhibition of human OCI-Ly8 cells after 24 hrs by MTT assay; assay type: functional; conditions: OCI-Ly8, 24 h
[34] = Growth inhibition of human Z138C cells after 48 hrs by MTT assay; assay type: functional
[35] = Growth inhibition of human JeKo1 cells after 48 hrs by MTT assay; assay type: functional; conditions: JeKo-1, 48 h
[36] = Growth inhibition of human MEC1 cells after 48 hrs by MTT assay; assay type: functional; conditions: MEC1, 48 h
[37] = Growth inhibition of human Z138C cells after 24 hrs by MTT assay; assay type: functional
[38] = Growth inhibition of human SC1 cells after 24 hrs by MTT assay; assay type: functional; conditions: SC-1, 24 h
[39] = Growth inhibition of human OCI-Ly8 cells after 48 hrs by MTT assay; assay type: functional; conditions: OCI-Ly8, 48 h
[40] = Growth inhibition of human SUDHL16 cells after 24 hrs by MTT assay; assay type: functional; conditions: SU-DHL-16, 24 h
[41] = system: WSU-NHL; assay: Growth inhibition of human WSU-NHL cells after 24 hrs by MTT assay; assay type: functional
[42] = Growth inhibition of human WSU-FSCCL cells after 48 hrs by MTT assay; assay type: functional
[43] = Growth inhibition of human SUDHL16 cells after 48 hrs by MTT assay; assay type: functional; conditions: SU-DHL-16, 48 h
[44] = Growth inhibition of human U2932 cells after 24 hrs by MTT assay; assay type: functional; conditions: U2932, 24 h
[45] = Growth inhibition of human UPN1 cells after 48 hrs by MTT assay; assay type: functional; conditions: UPN1, 48 h
[46] = Growth inhibition of human JVM2 cells after 24 hrs by MTT assay; assay type: functional; conditions: JVM-2, 24 h
[47] = Growth inhibition of human U2932 cells after 48 hrs by MTT assay; assay type: functional; conditions: U2932, 48 h
[48] = Growth inhibition of human MEC2 cells after 48 hrs by MTT assay; assay type: functional; conditions: MEC2, 48 h
[49] = Growth inhibition of human DOHH2 cells after 24 hrs by MTT assay; assay type: functional; conditions: DOHH-2, 24 h
[50] = Growth inhibition of human WSU-FSCCL cells after 24 hrs by MTT assay; assay type: functional
[51] = Growth inhibition of bortezomib-resistant human JBR cells after 24 hrs by MTT assay; assay type: functional
[52] = system: PBMC; assay: Induction of apoptotic cell death in human PBMCs at 1 to 10 uM after 24 hrs by Annexin V and propidium iodide staining based flow cytometry
[53] = Growth inhibition of bortezomib-resistant human JBR cells after 48 hrs by MTT assay; assay type: functional

With Cn1c(=O)c(-c2c(Cl)cccc2Cl)cc2c(N)nc(Nc3ccc(OCCN4CCOCC4)cc3)nc21 the Activity [1] was 44%, the Activity [2] was 16% and the Activity [3] was 0%.

Molecule CN1CCN(c2ccc(Nc3nc(N)c4cc(-c5c(Cl)cccc5Cl)c(=O)n(C)c4n3)cc2)CC1 [listing 1 of 2 here] has an inhibition [4] of 40%, an Activity [1] of 9% and an inhibition [5] of 10%. The inhibition [6] was “Active”, the Activity [2] was 3% and the inhibition [7] was “Dose-dependent effect”. For the same molecule, the inhibition [8] was “Dose-dependent effect” and the Activity [3] was -1%.

With Nc1nc(Nc2ccccc2)nc2c1CC(c1c(Cl)cccc1Cl)CN2 (stereo not drawn) the GI50 [9] was 1.3 µM, the GI50 [10] was 2.4 µM and the GI50 [11] was 4 µM. It also gave a GI50 [12] of 7.5 µM.

Work on Nc1nc(Nc2ccccc2)nc2c1CC(c1c(Cl)cccc1Cl)C(=O)N2 (stereo not drawn) yielded a GI50 [9] of 52.3 µM, a GI50 [10] of 5.7 µM and a GI50 [11] of over 100 µM. It also gave a GI50 [12] of 12 µM.

In the case of Nc1nc(Nc2ccccc2)nc2[nH]c(=O)c(-c3c(Cl)cccc3Cl)cc12, the GI50 [9] is reported as over 100 µM, the GI50 [10] is reported as over 100 µM and the GI50 [11] is reported as 12.1 µM. For the same molecule, the GI50 [12] was 8.8 µM.

Work on CN1C(=O)C(c2c(Cl)cccc2Cl)Cc2c(N)nc(Nc3ccccc3)nc21 (stereo not drawn) yielded a GI50 [9] of 1.3 µM, a GI50 [10] of 1.7 µM and a GI50 [11] of 67.2 µM. It also gave a GI50 [12] of over 100 µM.

Molecule CN1CCN(c2ccc(Nc3nc(N)c4cc(-c5c(Cl)cccc5Cl)c(=O)n(C)c4n3)cc2)CC1.CS(=O)(=O)O has a solubility [13] of 10000 µg/mL.

With CN1CCN(c2ccc(Nc3nc(N)c4cc(-c5c(Cl)cccc5Cl)c(=O)n(C)c4n3)cc2)CC1 [listing 2 of 2 here] the GI50 [9] was 3 µM, the GI50 [14] was 2.7 µM and the GI50 [15] was 5.9 µM. The GI50 [16] was 2.7 µM, the GI50 [17] was 3 µM and the GI50 [18] was 3 µM. It also gave an inhibition at 5 µM [19] of 63%, a GI50 [20] of 3.6 µM and a GI50 [21] of 5 µM. It also gave a GI50 [22] of 4.9 µM, a GI50 [23] of 3.6 µM and a GI50 [24] of 2.7 µM. For the same molecule, the GI50 [25] was 3 µM, the GI50 [26] was 3.6 µM and the GI50 [27] was 3 µM. For the same molecule, the GI50 [28] was 3.6 µM, the GI50 [29] was 5.4 µM and the GI50 [30] was 5.9 µM. The GI50 [31] was 3.6 µM, the GI50 [32] was 5.9 µM and the GI50 [33] was 5.4 µM. For the same molecule, the GI50 [34] was 3 µM, the GI50 [35] was 3 µM and the GI50 [36] was 4.9 µM. The GI50 [37] was 3.6 µM, the GI50 [38] was 3.7 µM and the GI50 [39] was 5 µM. For the same molecule, the GI50 [40] was 5.4 µM, the GI50 [41] was 3.7 µM and the GI50 [42] was 2.7 µM. For the same molecule, the GI50 [43] was 5 µM, the GI50 [10] was 2.6 µM and the GI50 [11] was 3.2 µM. For the same molecule, the GI50 [44] was 5.4 µM, the GI50 [45] was 3 µM and the GI50 [46] was 3.6 µM. It also gave a GI50 [47] of 5 µM, a GI50 [48] of 4.9 µM and a GI50 [12] of 4.9 µM. The GI50 [49] was 3.7 µM and the GI50 [50] was 3.7 µM.

Work on Nc1nc(N)c2c(n1)NC(=O)C(c1c(Cl)cccc1Cl)C2 (stereo not drawn) yielded a GI50 [9] of over 100 µM, a GI50 [10] of over 100 µM and a GI50 [11] of over 100 µM. It also gave a GI50 [12] of over 100 µM.

Work on Cn1c(=O)c(-c2c(Cl)cccc2Cl)cc2c(N)nc(Nc3ccc(NCCN4CCOCC4)cc3)nc21 yielded an Activity [1] of 31%, an Activity [2] of 10% and an Activity [3] of 0%.

Cn1c(=O)c(-c2c(Cl)cccc2Cl)cc2c(N)nc(Nc3ccccc3)nc21 showed a GI50 [9] of 0.7 µM, a GI50 [51] of 3.1 µM and a solubility [13] of under 1 µg/mL. For the same molecule, the GI50 [10] was 0.4 µM, the GI50 [11] was 1.8 µM and the Activity [52] was 3%. The GI50 [53] was 0.9 µM and the GI50 [12] was 1.7 µM.

For C=CC(=O)N1CCC[C@@H](n2nc(-c3ccc(Oc4ccccc4)cc3)c3c(N)ncnc32)C1 [IBRUTINIB], the inhibition at 5 µM [19] was 3% and the inhibition [6] was “Active”.

For COc1cc(Nc2ncc(F)c(Nc3ccc4c(n3)NC(=O)C(C)(C)O4)n2)cc(OC)c1OC [R-406], the inhibition at 5 µM [19] was 31% and the inhibition [6] was “Active”.
